Experiments:
Prothrombin = Prothrombin (Homo sapiens, UniProt P00734); experiment: Inhibition of human alpha-thrombin
Coagulation factor X = Coagulation factor X (Homo sapiens, UniProt P00742); experiment: Inhibition of human factor 10a
Trypsin = Trypsin (Homo sapiens, UniProt P07477+P07478+P35030); experiment: Inhibition of human trypsin; type: protein assay
[1] = biological target: T1, Fatty-acid amide hydrolase 1 (Rattus norvegicus, UniProt P97612)
T1 sequence (P97612 whole entry): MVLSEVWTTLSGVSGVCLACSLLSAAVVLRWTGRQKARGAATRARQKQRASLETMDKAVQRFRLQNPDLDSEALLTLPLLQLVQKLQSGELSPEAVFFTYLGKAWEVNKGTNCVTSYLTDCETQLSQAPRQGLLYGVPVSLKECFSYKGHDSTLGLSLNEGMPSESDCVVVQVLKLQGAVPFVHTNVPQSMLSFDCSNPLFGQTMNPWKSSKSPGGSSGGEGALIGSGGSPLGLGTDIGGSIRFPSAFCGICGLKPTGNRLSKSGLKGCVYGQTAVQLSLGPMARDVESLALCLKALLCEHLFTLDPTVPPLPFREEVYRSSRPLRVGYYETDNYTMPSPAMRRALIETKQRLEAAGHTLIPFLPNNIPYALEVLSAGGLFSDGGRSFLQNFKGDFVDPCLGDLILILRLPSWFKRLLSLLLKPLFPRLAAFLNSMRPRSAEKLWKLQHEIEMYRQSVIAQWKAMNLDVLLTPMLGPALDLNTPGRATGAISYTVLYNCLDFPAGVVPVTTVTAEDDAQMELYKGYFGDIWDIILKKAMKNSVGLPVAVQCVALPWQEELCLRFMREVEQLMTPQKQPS

Chain of Coagulation factor X (P00742 41-179 limits assumed): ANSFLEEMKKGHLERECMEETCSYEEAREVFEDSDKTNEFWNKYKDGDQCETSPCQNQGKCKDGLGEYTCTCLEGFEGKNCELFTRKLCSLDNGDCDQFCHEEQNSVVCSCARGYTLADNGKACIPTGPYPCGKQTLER
Chain of Coagulation factor X (P00742 235-488 limits assumed): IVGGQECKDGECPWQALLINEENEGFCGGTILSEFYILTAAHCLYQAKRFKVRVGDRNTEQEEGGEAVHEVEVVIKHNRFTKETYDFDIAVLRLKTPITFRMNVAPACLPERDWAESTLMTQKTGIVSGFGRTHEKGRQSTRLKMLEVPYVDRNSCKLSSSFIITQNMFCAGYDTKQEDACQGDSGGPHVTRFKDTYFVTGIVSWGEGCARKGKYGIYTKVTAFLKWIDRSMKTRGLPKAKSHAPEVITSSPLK

Row | IC50 (Coagulation factor X) [nM] | IC50 (Prothrombin) [nM] | Structure (SMILES) | other results
1 | 28 | – | N=C(N)NCCC[C@@H](NS(=O)(=O)Cc1ccccc1)C(=O)NCC(=O)N[C@@H](CC1CCNCC1)C(=O)c1nccs1 | –
2 | – | 110 | N=C(N)N1CCC[C@@H](C[C@H](NC(=O)CN2C(=O)CN(CCCc3ccc(Cl)cc3)C(=O)[C@H]2Cc2ccccc2)C(=O)c2nccs2)C1 | –
3 | 770 | 14000 | N=C(N)NCCC[C@H](NC(=O)CN1CCN(Cc2ccccc2)CC1=O)C(=O)c1nccs1 | –
4 | 6 | – | CN(CC(=O)N[C@@H](CCCNC(=N)N)C(=O)c1nccs1)C(=O)CNS(=O)(=O)c1ccccc1 | –
5 | 1 | – | N=C(N)NCCC[C@@H](NS(=O)(=O)Cc1ccccc1)C(=O)NCC(=O)N[C@@H](CCCCN)C(=O)c1nccs1 | –
6 | 44 | – | N=C(N)NCCC[C@@H](NS(=O)(=O)Cc1ccccc1)C(=O)NCC(=O)N[C@@H](Cc1ccncc1)C(=O)c1nccs1 | –
7 | 320 | 7000 | N=C(N)NCCC[C@H](NC(=O)CN1CCN(C(=O)c2ccccc2)CC1=O)C(=O)c1nccs1 | –
8 | 11 | 150000 | N=C(N)NCCC[C@H](NC(=O)CN1CCN[C@@H](CCCNC(=N)N)C1=O)C(=O)c1nccs1 | –
9 | 0.6 | 40 | N=C(N)NCCC[C@H](NC(=O)CNC(=O)[C@@H](CC1CCCCC1)NS(=O)(=O)Cc1ccccc1)C(=O)c1nccs1 | –
10 | – | 1200 | N=C(N)N1CCC[C@@H](C[C@H](NC(=O)CN2C(=O)CN(c3ccccc3)C(=O)[C@H]2Cc2ccccc2)C(=O)c2nccs2)C1 | –

Second part, the molecule before the results:

Row | Structure (SMILES) | IC50 (Coagulation factor X) [nM] | IC50 (Prothrombin) [nM] | other results
11 | N=C(N)NCCC[C@H](NC(=O)[C@@H]1CCCN1C(=O)CC(c1ccccc1)c1ccccc1)C(=O)c1nc2ccccc2s1 | – | – | Ki (Prothrombin): 1.1 nM
12 | N=C(N)N1CCC([C@H](NC(=O)[C@@H]2CC[C@H]3CN(C(=O)CCc4ccccc4)CC(=O)N32)C(=O)c2nccs2)CC1 | – | – | IC50 (Trypsin): 11900 nM
13 | COC(=O)c1cccnc1-c1cnc(C(=O)CCCCCCc2ccccc2)o1 | – | – | Ki [1]: 130 nM
14 | CCCCC(=O)c1nc2ncccc2o1 | – | – | Ki [1]: 50 nM
15 | COc1ccnc(-c2cnc(C(=O)CCCCCCc3ccccc3)o2)c1 | – | – | Ki [1]: 0.8 nM
16 | CC(C)C[C@H](NC(=O)NCc1ccc(Cl)c(Cl)c1)C(=O)N[C@H](C(=O)N[C@@H](CCCN=C(N)N)C(=O)c1nccs1)C(C)C | – | 2600 | –
17 | CN[C@H](Cc1ccccc1)C(=O)N1CCC[C@H]1C(=O)N[C@](C)(CCCNC(=N)N)C(=O)c1nc2ccccc2s1.O=C(O)C(F)(F)F | – | 3700 | IC50 (Trypsin): 6000 nM
18 | CCCCCCCC/C=C\CCCCCCCC(=O)c1nnco1 | – | – | Ki [1]: 90 nM
19 | NC(N)=NCCC[C@H](NC(=O)CN1CCN(S(=O)(=O)c2ccc(Cl)cc2)CC1=O)C(=O)c1nccs1 | – | 1000 | –
20 | N=C(N)NCCC[C@H](NC(=O)[C@@H]1CCCN1C(=O)[C@H](CO)NS(=O)(=O)c1cccc2ccccc12)C(=O)c1nc2ccccc2s1 | – | – | Ki (Prothrombin): 0.8 nM
21 | Cn1nnnc1C(=O)[C@@H](NC(=O)[C@@H]1CC[C@H]2CN(S(=O)(=O)Cc3ccccc3)CC(=O)N21)[C@H]1CC[C@H](N)CC1 | – | – | Ki (Trypsin): 35000 nM; Ki (Prothrombin): 5 nM
22 | N=C(N)NCCC[C@H](NC(=O)[C@@H]1CC[C@H]2CN(S(=O)(=O)Cc3ccccc3)CC(=O)N21)C(=O)c1nccs1 | – | – | Ki (Prothrombin): 0.2 nM
23 | NC(N)=NCCC[C@H](NC(=O)CN1CCN(S(=O)(=O)Cc2ccccc2)CC1=O)C(=O)c1nccs1 | 4 | 390 | –
24 | N=C(N)N1CCC[C@@H](C[C@H](NC(=O)CN2CC(=O)N(CCCc3ccccc3)CC2=O)C(=O)c2nccs2)C1 | – | – | IC50 (Trypsin): 91000 nM; Ki (Prothrombin): 500 nM
25 | NC(N)=NCCC[C@H](NC(=O)CN1CCN[C@H](CCCN=C(N)N)C1=O)C(=O)c1nccs1 | 21 | 200000 | –
26 | Cc1cccc(C(C)(C)CN(CC(=O)NCC(=O)NC(CCCN=C(N)N)B(O)O)C(=O)CCc2ccccc2)c1 (single isomer, unassigned) | – | – | Ki (Prothrombin): 400 nM
27 | CCCCC/C=C\C/C=C\C/C=C\C/C=C\CCCC(=O)[n+]1ccccn1 | – | – | Ki [1]: 47 nM
28 | CS(=O)(=O)N[C@H](CCCNC(=N)N)C(=O)NCC(=O)N[C@@H](CCCNC(=N)N)C(=O)c1nccs1 | 2 | – | –
29 | N=C(N)NCCC[C@H](NC(=O)[C@@H]1CC[C@H]2CN(C(=O)CCOc3ccccc3)CC(=O)N21)C(=O)c1nccs1 | – | – | Ki (Prothrombin): 5 nM
30 | CCCCCCCC/C=C\CCCCCCCC(=O)c1nnnn1C | – | – | Ki [1]: 3700 nM
31 | N=C(N)NCCC[C@H](NC(=O)Cn1c(Cc2ccccc2)c(Cl)nc(NCCc2ccccc2)c1=O)C(=O)c1nccs1 | – | – | IC50 (Trypsin): 470 nM
32 | CCCCCCCC/C=C\CCCCCCCC(=O)c1cccnn1 | – | – | Ki [1]: 130 nM
